# Assay results taken from paper PMC4125160, “Neurotoxicity and Mode of Action of N, N-Diethyl-Meta-Toluamide (DEET)” (PLoS ONE, 2014).
# Like-named read-outs stand apart in the source and are kept apart here.
# Legend:
# [1] = tested on: housefly larval central nervous system; assay: Neurophysiological recordings of CNS nerve discharge in housefly larvae; design: species or system Musca domestica; details: for EC50: Musca domestica
# Experimental: Neurophysiological recordings were performed on the central and peripheral nervous systems of larval Musca domestica. Glass pipette electrodes were pulled from borosilicate glass capillaries on a P-1000 Flaming/Brown micropipette puller (Sutter Instrument, Novato CA, USA). For CNS recordings, it was first excised from the larvae and placed in a separate dish with physiological saline (200 µL) containing: 157 mM NaCl, 3 mM KCl, 2 mM CaCl2, and 4 mM HEPES, pH = 7.25. The CNS was manually transected posterior to the cerebral lobes to disrupt the blood-brain barrier and enhance chemical penetration. Any convenient peripheral nerve trunks were pulled into a recording suction electrode. Amplification and digitization of descending electrical activity originating from the CNS were converted on-line into a rate plot, expressed in Hz (MacLab analog to digital converter hardware and LabChart 7 software, ADInstruments, Colorado Springs, CO, USA). […] After a baseline was established, the CNS preparation was directly exposed to test compound by adding 200 µL of solution to the bath containing 200 µL of saline. The final concentration of solvent in the bath was 0.1% DMSO. Each concentration was recorded for 3–5 min prior to the addition of the next drug concentration. […] Each drug concentration was replicated 3-5 times.
# [2] = target: T1, Aedes aegypti AChE (AeAChE) (Aedes aegypti, UniProt Q6A2E2); assay: AChE inhibition, Ellman assay; type: biochemical
# T1 construct: Homogenate enzymes were prepared from groups of ten non-blood fed adult female mosquitoes; from tissue; host or cells: whole adult female mosquitoes, supernatant of homogenate
# From the text: (§1) In vitro biochemical assays utilized five acetylcholinesterase (AChE) enzymes. Recombinant human AChE (hAChE) was purchased from a commercial source (lyophilized powder, Sigma C1682, St. Louis, MO, USA). Homogenates to prepare Anopheles gambiae AChE (AgAChE) were obtained from the wild type G3 strain and the resistant AKRON strain (BEI Resources; http://www.beiresources.org/). AKRON mosquitoes (from Benin and donated by M. Akogbeto) have both knockdown resistance (kdr) to pyrethroids (L1014F sodium channel mutation) and the G119S AChE mutation (ace-1R), which confers resistance to carbamates, [15]. Both strains were cultured in the Emerging Pathogens Institute, University of Florida, Gainesville, FL, USA from eggs provided by the Center for Disease Control, Atlanta, GA, USA. Homogenates were also used to prepare Aedes aegypti AChE (AeAChE) from mosquitoes provided by the CMAVE, USDA-ARS, Gainesville, FL, USA; Musca domestica AChE (MdAChE) from flies cultured in the Department of Entomology and Nematology, Medical Entomology Laboratory, University of Florida, Gainesville, FL, USA); and Drosophila melanogaster AChE (DmAChE) from flies (Oregon-R strain) cultured in the Emerging Pathogens Institute, University of Florida, Gainesville, FL, USA. Homogenate enzymes were prepared from groups of ten non-blood fed adult female mosquitoes, five whole bodied Drosophila, or three Musca heads homogenized in 1 mL of ice-cold sodium phosphate buffer (0.1 M sodium phosphate, pH 7.8) with an electric motor driven glass tissue homogenizer. The homogenate was centrifuged at 5000×g using a Sorvall Fresco refrigerated centrifuge at 4 °C for 5 minutes. The supernatant was used as the enzyme source, and all enzyme preparations contained 0.3% (v/v) triton X-100 and 1 mg/ml BSA. Prior to use, the recombinant human enzyme was diluted 500-fold into sodium phosphate buffer containing triton X-100 and 1 mg/ml BSA.
# (§2) Inhibition of AChE was determined using the Ellman assay and was based on the method outlined in Carlier et al.. Briefly, enzyme solution (10 µL) was added to each well of a 96-well micro assay plate, along with 20 µL of inhibitor in DMSO/saline suspension, and 150 µL of sodium phosphate buffer. Final concentration of DMSO was 0.1% in all incubations. The plate was incubated at 25 °C for ten minutes. Ellman assay reagents, acetylthiocholine iodide (0.4 mM, final concentration) and 5,5′-dithiobis-(2-nitro)benzoic acid (0.3 mM, final concentration), were prepared fresh and 20 µL was added to the enzyme to initiate the reaction.
# [3] = target: T2, Anopheles gambiae AChE (AgAChE), wild type G3 strain (Anopheles gambiae, UniProt Q869C3); assay: AChE inhibition, Ellman assay; type: biochemical
# T2 construct: Homogenate enzymes were prepared from groups of ten non-blood fed adult female mosquitoes; from tissue; host or cells: whole adult female mosquitoes, G3 strain, supernatant of homogenate
# From the text: as §1, §2
# [4] = target: T3, Drosophila melanogaster AChE (DmAChE) (Drosophila melanogaster, UniProt P07140); assay: AChE inhibition, Ellman assay; type: biochemical
# T3 construct: five whole bodied Drosophila, or three Musca heads homogenized; from tissue; host or cells: whole Drosophila (Oregon-R), supernatant of homogenate
# From the text: as §1, §2
# firefly light organ = assay: In vivo assay for effects on firefly light organ; design: species or system Photinus pyralis
# Experimental: Adult firefly beetles (Photinus sp.) were collected locally (Nashville, TN) and housed in well-ventilated chambers with tree leaves. The animals had free access to 10% sucrose solution. Chemicals were dissolved in absolute ethanol and 1 µL was topically applied directly to the ventral light organ with the use of a manual pipettor. Prior to DEET application, the beetles were immobilized with molten parafilm and were mounted on corrugated cardboard for the duration of the study. Due to the time required for bioactivation of CDM, insects were treated with 1 µL of CDM and were released back into the holding chamber for three hours. After three hours, they were mounted in the previously described manner and monitored for activation of the lantern. Photographs were captured with a handheld camera (Canon PowerShot SX110 IS). Pictures were captured within five minutes, four hours, and 10 minutes post application for DEET, CDM, and propoxur, respectively. DEET- and propoxur-treated insects were monitored for at least 1 hour post exposure to ensure the response was not slow acting. The original photographs were cropped and background shadows were enhanced to increase detail of the insect using Adobe Photoshop PS5 (Adobe Systems, San Jose, CA, USA). The color or brightness of the light organ was not manipulated in any way during post-processing of the image.
# [5] = tested on: neuromuscular junction of third instar Musca domestica larvae; assay: Neuromuscular junction recordings of evoked EPSP in housefly larvae; details: for effect on evoked EPSP in words: toluene at 5 mM
# Experimental: Neuromuscular recordings of the evoked excitatory postsynaptic potential (EPSP) were performed on third instar housefly larvae, essentially as described previously. In short, the maggot was immobilized with pins, and the nervous and musculature systems were exposed. The preparation was then bathed in saline containing: 140 mM NaCl, 0.75 mM CaCl2, 5 mM KCl, 4 mM MgCl2, 5 mM NaHCO3, and 5 mM HEPES (pH = 7.25). The nerves were severed from the base of the CNS, which was removed, and a lateral nerve trunk innervating the longitudinal muscles was drawn into a suction electrode filled with saline. Stimuli were applied at 1 volt and of 0.2 sec duration to elicit a contraction from the longitudinal muscles. The stimulated muscle was then impaled with a recording glass capillary microelectrode filled with 1 M KCl to record effects on the evoked EPSP and membrane potential. Signals from all recordings were amplified and digitized with the use of the MacLab. Chemicals were applied to the preparation directly by hand pipetting 150 µL of solution into the bath volume of 150 µL.
# [6] = mean, n = 3, read-out: IC50 (95% CI)
SMILES,"EC50 ([1]; Fig. 3C, read-out: EC50 for increasing spike frequency in the CNS) [µM]",IC50 [2] [µM],IC50 [3] [µM],IC50 [4] [µM],lantern illumination (firefly light organ; 1 µg topically on light organ),effect on evoked EPSP in words [5],threshold concentration for neuroexcitation [1],"EC50 ([1]; abstract, read-out: EC50, excitatory effects) [µM]",sensitivity of enzyme in words ([2]; concentrations up to 10 mM),"IC50 [2, 6] [µM]",sensitivity of enzyme in words ([3]; concentrations up to 10 mM),"IC50 [3, 6] [µM]","IC50 [4, 6] [µM]",lantern illumination (firefly light organ; 5 µg topically on light organ),"period the lantern remained active (firefly light organ; 5 µg, majority of individuals) [s]",lantern illumination (firefly light organ; 1 and 2.5 µg topically on light organ),interval of repeated activation of the lantern (firefly light organ; controls flashed every 45-90 seconds) [s],time to complete block ([5]; 10 mM added to the bath),change in muscle membrane resting potential ([5]; any concentration),"concentration at which half of the preparations were blocked ([5]; evoked EPSP, all or none response)"
CNC(=O)Oc1ccccc1OC(C)C [propoxur],0.344,0.37,0.447,0.084,no changes in lantern illumination,no effect,–,–,–,–,–,–,–,–,–,–,–,–,–,–
"CCN(CC)C(=O)c1cccc(C)c1 [DEET, N, N-diethyl-meta-toluamide]",–,–,–,–,–,complete and rapid block,about 50 µM,120,completely insensitive,> 10000,completely insensitive,> 10000,10000,Bright and complete illumination of the lantern,10 to 60,Faint illumination in circumscribed areas of the lantern,10 to 20,approximately 120 seconds,Little or no change,ca. 7 mM
